Laboratory results from ChEMBL document CHEMBL6127044, “An insight into G-quadruplexes: Identification and potential therapeutic targets in livestock viruses” (Eur J Med Chem, 2024).

Assays:
Vero = assay: Cytotoxicity against African green monkey Vero cells at 50 uM incubated for 24 hrs by MTT assay relative to control; format: toxicity, cell-based; conditions: chlorocebus sabaeus
[1] = tested on: Porcine epidemic diarrhea virus; assay: Antiviral activity against Porcine epidemic diarrhea virus infected in African green monkey Vero E6 cells assessed as inhibition of viral replication at 25 uM relative to control; format: functional; conditions: Vero C1008

Structure (SMILES) | Activity (Vero) [%] | inhibition at 25 µM [1] [%]
C[n+]1cc(NC(=O)c2ccc3ccc4ccc(C(=O)Nc5cc6ccccc6[n+](C)c5)nc4c3n2)cc2ccccc21 | 80 | –
NCCOc1cc(C(=O)Nc2cc(OCCN)c3ccccc3n2)nc(C(=O)Nc2cc(OCCN)c3ccccc3n2)c1 [PYRIDOSTATIN] | 80 | 99
C[n+]1ccc(-c2c3nc(c(-c4cc[n+](C)cc4)c4ccc([nH]4)c(-c4cc[n+](C)cc4)c4nc(c(-c5cc[n+](C)cc5)c5ccc2[nH]5)C=C4)C=C3)cc1 [TMPYP4 CHLORIDE] | – | 99
